Experimental data reported in ChEMBL document CHEMBL3864162, “Discovery of potent inhibitors of the lysophospholipase autotaxin” (Bioorg Med Chem Lett, 2016).

How the values were obtained:
[1] = Intrinsic clearance in human liver microsomes assessed per gram of liver at 1 uM in presence of NADPH regenerating system measured up to 45 mins by UPLC/MS/MS analysis; format: ADME; conditions: 0.75 h
[2] = Intrinsic clearance in CD1 mouse liver microsomes assessed per gram of liver at 1 uM in presence of NADPH regenerating system measured up to 45 mins by UPLC/MS/MS analysis; format: ADME; conditions: 0.75 h
Autotaxin [3] = molecular target: T1, Autotaxin (Homo sapiens, UniProt Q13822); assay: Inhibition of human recombinant ATX using Rac-1-Palmitoyl-glycero-3-phosphocholine as substrate incubated for 2 hrs using ADHP fluorogenic peroxidase substrate by horseradish peroxidase/choline oxidase-coupled assay
[4] = Blood clearance in CD1 mouse at 1 mg/kg, iv administered as bolus dose measured up to 7 hrs by UPLC/MS/MS spectrometry analysis; format: ADME, organism-based
[5] = Half life in CD1 mouse blood at 1 mg/kg, iv administered as bolus dose measured up to 7 hrs by UPLC/MS/MS spectrometry analysis; format: ADME, organism-based
Autotaxin [6] = molecular target: T1, Autotaxin; assay: Inhibition of ATX in human plasma assessed as decrease in hydrolysis of lysophosphatidylcholine by measuring choline release after 24 hrs by horseradish peroxidase/choline oxidase-coupled assay; format: cell-free
[7] = Volume of distribution at steady state in CD1 mouse at 1 mg/kg, iv administered as bolus dose measured up to 7 hrs by UPLC/MS/MS spectrometry analysis; format: ADME, organism-based; conditions: in vivo, read-out: Vdss
Autotaxin [8] = molecular target: T1, Autotaxin; assay: Inhibition of human recombinant ATX using FS-3 as substrate incubated in dark for 45 mins by fluorescence assay
[9] = Blood clearance in CD1 mouse at 0.5 mg/kg, iv administered as bolus dose measured up to 7 hrs by UPLC/MS/MS spectrometry analysis; format: ADME, organism-based
[10] = Volume of distribution at steady state in CD1 mouse at 0.5 mg/kg, iv administered as bolus dose measured up to 7 hrs by UPLC/MS/MS spectrometry analysis; format: ADME, organism-based; conditions: in vivo, read-out: Vdss
[11] = Half life in CD1 mouse blood at 0.5 mg/kg, iv administered as bolus dose measured up to 7 hrs by UPLC/MS/MS spectrometry analysis; format: ADME, organism-based

Row | IC50 (Autotaxin [3]) | Compound | CLH [2] | IC50 (Autotaxin [6]) | further results
1 | 1240 nM | O=C(CCc1nc2cccnc2n1Cc1ccccc1)NCc1ccccc1 |  |  | 
2 | 6770 nM | CS(=O)(=O)c1ccc(CNC(=O)CCc2nc3cccnc3n2Cc2ccccc2)cc1 |  |  | 
3 | 3440 nM | O=C(CCc1nc2cccnc2n1Cc1ccccc1)NCCc1ccccc1 |  |  | 
4 | 2430 nM | O=C(CCc1nc2cccnc2n1Cc1ccccc1)NCc1ccsc1 |  |  | 

The remaining lines, values behind:

Row | Compound | IC50 (Autotaxin [3]) | CLH [2] | IC50 (Autotaxin [6]) | further results
5 | O=C(CCc1nc2cccnc2n1Cc1ccccc1)NCc1ccc(F)cc1 |  | 23.9 mL/min/g |  | CLH [1]: 41.2 mL/min/g
6 | C[C@H](NC(=O)C[S+]([O-])c1nc2cccnc2n1Cc1ccc(OC(F)(F)F)cc1)c1ccc(F)cc1 (stereo in doubt; 26a) | 10 nM | 28.6 mL/min/g | 178 nM | clearance [4]: 82 mL/min/kg; half-life [5]: 13.2 min; Vd [7]: 0.2 L/kg
7 | C[C@H](NC(=O)CCc1nc2cccnc2n1Cc1ccccc1)c1ccccc1 |  | 21.4 mL/min/g | 288 nM | CLH [1]: 62 mL/min/g
8 | C[C@H](NC(=O)C[S+]([O-])c1nc2cccnc2n1Cc1ccc(OC(F)(F)F)cc1)c1ccc(F)cc1 (stereo in doubt; 26b) | 178 nM | 19.8 mL/min/g | 207 nM | 
9 | COc1ccc(Cn2c(CCC(=O)N[C@H](C)c3ccccc3)nc3cccnc32)cc1 |  |  | 8500 nM | 
10 | COc1ccc(CNC(=O)CCc2nc3cccnc3n2Cc2ccccc2)cc1 |  |  | 8870 nM | IC50 (Autotaxin [8]): 40 nM
11 | COc1ccc(Cn2c(CCC(=O)N[C@@H](C)c3ccccc3)nc3cccnc32)cc1 |  | 35 mL/min/g | 318 nM | clearance [9]: 75 mL/min/kg; Vd [10]: 0.19 L/kg; half-life [11]: 10.2 min; CLH [1]: 21.4 mL/min/g
12 | C[C@H](NC(=O)NCc1nc2cccnc2n1Cc1ccc(F)cc1)c1ccc(Cl)cc1 |  |  | 414 nM | 
13 | C[C@H](NC(=O)CCc1nc2ccncc2n1Cc1ccc(F)cc1)c1ccc(F)cc1 |  |  | 333 nM | 
14 | C[C@H](NC(=O)CCc1nc2ccncc2n1Cc1ccc(OC(F)(F)F)cc1)c1ccc(F)cc1 |  |  | 32 nM | 
15 | C[C@H](NC(=O)CCc1nc2cccnc2n1Cc1ccc(F)cc1)c1ccc(F)cc1 |  |  | 444 nM | 
16 | C[C@H](NC(=O)CCc1nc2cccnc2n1Cc1ccc(C(F)(F)F)cc1)c1ccc(Cl)cc1 |  | 26.5 mL/min/g | 16 nM | clearance [4]: 72 mL/min/kg; half-life [5]: 19.8 min; Vd [7]: 0.88 L/kg
